# Data taken from patent US12459930B2, “Compounds for the inhibition of unregulated cell growth” (GODAVARI BIOREFINERIES LIMITED, priority 2018, dated 2025).
# Like-named read-outs stand apart in the source and are kept apart here.
# Legend:
# [1] = test system: MDAMB231 spheres (cancer stem cells); assay: In vitro sphere-forming assay (cancer stem cells), MDAMB231 in Mammosphere media; details: for 3D sphere count of MDAMB231 in Mammosphere media: 2000 cells/well, n = 6 ± S.D; for viability at 0.0025 µM / viability at 0.025 µM / viability at 0.25 µM / viability at 2.5 µM / viability at 25 µM: Homo sapiens
# [2] = test system: PC3 prostate cancer cell line; assay: In vitro antiproliferative assay (MTT assay), PC3; format: cell-based; details: 48 hrs drug incubation, read-out: IC50 in micromolar, PC3 (MTT assay)
# In short: (§1)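 Seed at predetermined efficiency → 24 h → compound 48 h → spin, discard supernatant → MTT 0.5 mg/ml 4 h → spin → DMSO. Log viability plotted against log dose.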
# [3] = test system: PC3 spheres (cancer stem cells); assay: In vitro sphere-forming assay (cancer stem cells), PC3 in Prostosphere media; details: for 3D sphere count of PC3 in Prostosphere media: 2000 cells/well, n = 6 ± S.D; for viability at 0.0025 µM: read-out: % Viability of spheres (PC3), 0.0025 uM
# Excerpt: (§3) In Vitro Sphere-forming Assay: Sphere assay measures the ability of cancer stem cells (CSCs) to form spheres in specially designed serum-free medium.
# (§4) Materials and Reagents:50×B27 Supplement (Life Technologies, Invitrogen, Catlog No.: 17502-044), Fibroblast Growth Factor (FGF) (Sigma-Aldrich, Catlog No.: F029125), Epidermal Growth Factor (EGF) (Sigma-Aldrich, Catlog No.: E9644), Insulin (Sigma, Catlog No.: 19278), Dulbecco's Modified Eagle Medium/F12 (HiMedia Catlog No.: AL139-6), Dulbecco's Phosphate Buffered Saline (HiMedia Catlog No.: TL1006), Trypan Blue (TC193), Prostate Epithelial Media (LONZA, Catlog No.: CC-3166) MEGM (LONZA, Catlog No.: CC-3051), Heparin (Sigma, Catlog No.: H3393), Penstrep (HiMedia, Catlog No.: A002)
# (§5) Prostosphere Media Preparation (For 100 mL): 1 g methyl cellulose autoclaved with magnetic stirrer, 100 mL plain media (Prostate Epithelial Basal Medium) was added and dissolved, under magnetic stirring. After complete dissolution, Insulin—40 μL, B27—2 mL, EGF—80 μL, Penstrep—1 ml was added.
# (§6) Procedure—The cells were trypsinised and made into single-cell suspension by passing through cell strainers (100 μl and 40 μl, respectively), The cells were diluted at a concentration of 2000 cells/100 μL and suspended in either Mammosphere (for breast cell lines) or Prostosphere (for prostate cell lines). 100 μL of this suspension was added into each well of 96-well suspension plates and incubated at 37 C, 50 CO2 for 24 hrs. Appropriate concentrations of the drugs (2 L) were added into respective wells with 100 μL of stem cell culture medium. Plates were incubated at 37° C., 50% CO2 for 72 hrs. After incubation, 2.5 μL of the respective drug concentration and 50 μL of stem cell culture medium were added into each well and the plates were further incubated at 37° C., 500 CO2 for 72 hrs. 3 μL of the respective drug concentration was added with 50 μL of stem cell culture medium again after incubation and plates were reincubated for 72 hrs at 37° C., 500 CO2. Number of primary spheres formed for each concentration were counted. The spheres were converted to 0 viability of spheres compared to untreated (Growth Control with DMSO, GCD).
# [4] = test system: MDAMB231 breast cancer cell line; assay: In vitro antiproliferative assay (MTT assay), MDAMB231; format: cell-based; details: 48 hrs drug incubation, read-out: IC50 in micromolar, MDAMB231 (MTT assay)
# In short: as §1
# [5] = test system: DU145 prostate cancer cell line; assay: In vitro antiproliferative assay (MTT assay), DU145; format: cell-based; details: 48 hrs drug incubation, read-out: IC50 in micromolar, DU145 (MTT assay)
# In short: as §1
# [6] = test system: PC3 prostate cancer cell line; assay: Soft agar colony-formation assay, PC3; format: cell-based; details: 1 week, Alamar Blue, read-out: IC50 in micromolar, PC3 (Soft Agar Assay)
# In short: (§2)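 Cells were embedded with drug in a top soft-agar layer over an agar base in 96-well format. Colonies grew for 1 week at 37 °C, 5% CO2, with medium feeding at day 3. Alamar Blue was added for 24 h, absorbance read at 630 nm, and log percent viability plotted against log drug concentration.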
# [7] = test system: PC3 spheres (cancer stem cells); details: human, 216 h
# Excerpt: as §3, §4, §5, §6
# [8] = test system: MDAMB231 breast cancer cell line; assay: Soft agar colony-formation assay, MDAMB231; format: cell-based; details: 1 week, Alamar Blue, read-out: IC50 in micromolar, MDAMB231 (Soft Agar Assay)
# In short: as §2
# [9] = MDA-MB-231, read-out: % Viability of spheres (MDAMB231)
# [10] = Homo sapiens, MDA-MB-231, 168 h
# [11] = read-out: % Viability of spheres (PC3)
Structure (SMILES),3D sphere count of MDAMB231 in Mammosphere media ([1]; 0.0025 uM),3D sphere count of MDAMB231 in Mammosphere media ([1]; 0.025 uM),3D sphere count of MDAMB231 in Mammosphere media ([1]; 0.25 uM),3D sphere count of MDAMB231 in Mammosphere media ([1]; 2.5 uM),3D sphere count of MDAMB231 in Mammosphere media ([1]; 25 uM),"viability at 0.0025 µM [1, 9] [%]","viability at 0.025 µM [1, 9] [%]","viability at 0.25 µM [1, 9] [%]","viability at 2.5 µM [1, 9] [%]","viability at 25 µM [1, 9] [%]",IC50 ([2]; 48 h) [µM],3D sphere count of PC3 in Prostosphere media ([3]; 0.0025 uM),3D sphere count of PC3 in Prostosphere media ([3]; 0.025 uM),3D sphere count of PC3 in Prostosphere media ([3]; 0.25 uM),3D sphere count of PC3 in Prostosphere media ([3]; 2.5 uM),3D sphere count of PC3 in Prostosphere media ([3]; 25 uM),viability at 0.0025 µM ([3]; GCD = 100% viability) [%],IC50 ([4]; hydrochloride) [µM],"IC50 ([5]; Homo sapiens, DU-145, 48 h) [µM]",IC50 ([6]; 168 h) [µM],also measured
"COc1cc2c(OCCCCN3CCOCC3)c3c(c(-c4ccc5c(c4)OCO5)c2cc1OC)C(=O)OC3.Cl [Formula VII, 4-(4-morpholinobutoxy)-9-(benzo[d][1,3]dioxol-5-yl)-6,7-dimethoxynaphtho[2,3-c]furan-1(3H)-one Hydrochloride]",58(±3),47(±3),36(±3),29(±3),21(±2),81,66,50,41,29,2.75,56(±3),46(±3),41(±3),37(±2),32(±3),69,3.27,2.34,2.7,"% Viability of spheres (PC3) ([7]; 0.025 µM): 59(±3) %; % Viability of spheres (PC3) ([7]; 0.25 µM): 50(±2) %; % Viability of spheres (PC3) ([7]; 2.5 µM): 44(±2) %; % Viability of spheres (PC3) ([7]; 25 µM): 34(±3) %; IC50 [8, 10]: 2.05 µM"
"Cl.c1ccc2c(-c3ccc4c(c3)OCO4)ccc(OCCCCCCN3CCOCC3)c2c1 [Formula V, 4-(6-(1-(benzo[d][1,3]dioxol-5-yl)naphthalen-4-yloxy)hexyl)morpholine hydrochloride]",,41(±5),39(±3),27(±3),19(±4),,,,,,,,58(±3),49(±3),41(±2),30(±5),,9.25,,,"3D sphere count of MDAMB231 in Mammosphere media ([1]; 250 uM): 0(±0); viability at 0.25 µM ([1]; MDA-MB-231, read-out: % Viability of spheres (MDAMB231), 0.25 uM, GCD = 100% viability): 47%; viability at 2.5 µM ([1]; MDA-MB-231, read-out: % Viability of spheres (MDAMB231), 2.5 uM, GCD = 100% viability): 33%; viability at 25 µM ([1]; MDA-MB-231, read-out: % Viability of spheres (MDAMB231), 25 uM, GCD = 100% viability): 23%; IC50 ([2]; hydrochloride): 6.03 µM; 3D sphere count of PC3 in Prostosphere media ([3]; 250 uM): 0(±0); viability at 0.025 µM [3, 11]: 67%; viability at 0.25 µM [3, 11]: 57%; viability at 2.5 µM [3, 11]: 48%; viability at 25 µM [3, 11]: 35%; IC50 ([5]; hydrochloride): 9.77 µM; IC50 ([6]; hydrochloride): 3.98 µM; IC50 ([8]; hydrochloride): 2.21 µM"
"c1cc2c(cc1-c1ccc(OCCCCCCN3CCOCC3)c3c1CCCC3)OCO2 [Formula XX, 4-(6-(5-(benzo[d][1,3]dioxol-5-yl)-1,2,3,4-tetrahydronaphthalen-8-yloxy)hexyl) morpholine]",48(±4),37(±4),27(±3),14(±4),0(±0),61,47,34,17,0,3.34,48(±5),37(±2),33(±4),15(±3),0(±0),58,,3.87,3.31,"viability at 0.025 µM ([3]; read-out: % Viability of spheres (PC3), 0.025 uM, GCD = 100% viability): 45%; viability at 0.25 µM ([3]; read-out: % Viability of spheres (PC3), 0.25 uM, GCD = 100% viability): 40%; viability at 2.5 µM ([3]; read-out: % Viability of spheres (PC3), 2.5 uM, GCD = 100% viability): 18%; viability at 25 µM ([3]; read-out: % Viability of spheres (PC3), 25 uM, GCD = 100% viability): 0%; IC50 ([4]; Homo sapiens, MDA-MB-231, 48 h): 3.04 µM; IC50 [8, 10]: 3.78 µM"
